# Literature values, collected in patent publication US9657007B2, “Substituted aminopyrimidine compounds and methods of use” (Calitor Sciences, LLC, priority 2013, dated 2017).
# Tests used:
# [1] = tested on: model of systemic lupus erythematosis; settings: in vivo
# [2] = tested on: mouse model of rheumatoid arthritis; settings: in vivo
# [3] = tested on: protein kinases
# [4] = tested on: PI3Kδ; settings: potency range in words
# [5] = tested on: murine model of asthma using ovalbumin-induced airway inflammation
SMILES,onset of disease in a model of systemic lupus erythematosis [1],efficacy in a mouse model of rheumatoid arthritis [2],activity against any protein kinases tested [3],inhibits PI3Kδ [4],inflammation and disease in a murine model of asthma [5]
O=C1NC(=O)/C(=C\c2ccc3nccnc3c2)S1 [AS 605240],delay onset of disease,efficacious,–,–,–
Cc1ccccc1-n1c(Cn2cnc3c(N)ncnc32)nc2cccc(C)c2c1=O [IC87114],–,–,no activity,high nanomolar range (triple digit),significantly ameliorate inflammation and disease
